Data on eight compounds can be found in patent publication US10081615B2, “Sulfamate derivative compounds for use in treating or alleviating pain” (Bio-Pharm Solutions Co., Ltd., priority 2013, dated 2018).

One data set has as its system SNL model. Briefly: Antiallodynic activity in the Chung model (SNL, Spinal Nerve Ligation; von Frey). The format is in vivo, Sprague-Dawley rats. On the procedure: Male Sprague-Dawley rats (200-220 g, Orient Bio, Korea) were habituated for 1 week before the experiment and allowed free access to food and water throughout the experimentation. Room temperature and humidity were maintained at 24±2° C. and 50±10%, respectively. The neuropathic surgery (SNL, Spinal Nerve Ligation) model was done as described in Kim and Chung (1992). Briefly, an animal was put under gaseous anesthesia with isoflurane and NO2 with a 4:4 flow ratio. The left lumbar spinal nerves L5 and L6 were isolated and tightly ligated with 4-0 silk thread. The wound was treated with a gentamicin antibiotic solution (4 mg/kg, 4 ul/g by bodyweight), and the wound muscle was closed with Catgut® chrome 4/0 thread and the skin was closed with Dafilon 4/0 thread. Sham controls were prepared in the same manner with the spinal nerves were exposed, but no ligated L5 and L6 nerves. Preparation of the vehicle controls were identical to the group treated with compound, except for administration of vehicles without compound in the vehicle control group.
Tactile sensitivity (mechanical allodynia) was evaluated using von Frey monofilaments before and after treatment and animals the animals were included in the study only if the withdrawal threshold value was less than 4 g. One week after surgery, SNL-operated animals (n=4˜6), sham-operated animals (n=4˜10) and vehicle-operated animals (n=4˜13) were tested for tactile sensitivity with von Frey monofilaments with 3 trials in each animal. All animals were placed in a stainless steel mesh chamber and habituated for 30 min in the test cage. The tactile sensitivity for ipsilateral hind paw was measured using the up-and-down method (Dixon, 1980) with seven von Frey monofilaments (0.4, 1, 2, 4, 6, 8, and 15 g) in 3 trials. The tactile sensitivity test was followed by Dixon's method (Dixon, 1980). The 50% paw withdrawal threshold for each paw was calculated using the following formula: [Xth] log=[vFr] log+ky where [vFr] is the force of the last von Frey used, k=0.2249 which is the average interval (in log units) between the von Frey monofilaments, and y is a value that depends upon the pattern of withdrawal responses (Dixon, 1980).
All animals were fasted for 18 h before the administration of the compounds. The antiallodynic effect of the compounds were evaluated at the various doses (n=5˜6), orally administered in a volume of 5 ul/g by bodyweight in a vehicle of 30% (v/v) PEG 400 (Example 7) or 20% (v/v) Tween 80 (Examples 5 and 6) or saline. […]
The relative values compared to the sham group (% control) were calculated and are shown in Table 5, which show an antiallodynic effect of the test compounds in the SNL model in rats.

The test system of data set [1] is acetic acid-induced writhes. Briefly: Writhing test (acetic acid). To be noted: mouse, oral. It counts as in vivo, ICR mice. On the procedure:
To examine the pain relief effect of the sulfamate derivative compounds, a writhing test was referring to Fischer, L. G. et al. (2008).
ICR mice (male, 24-28 g; Orient Bio, Korea) were habituated before test in test room for 1 hour. Animals were fasted for 2 hr before administration of compounds. […] All compounds were dissolved in a vehicle of 30% (v/v) PEG 400 or 20% (v/v) Tween 80. The control group was treated with the vehicle without compounds.
[…] Animals were habituated in the cage for 5 min. 5 min after habituation, the number of writhes (abdominal constriction) was counted for 15 minutes referring to Korzeniewska-Rybicka, I. et al. (1998) and compared with that of the control.
For orientation: Writhing tests count abdominal constrictions after an irritant is injected.

A further data set has as its system CFA-induced pain model. Briefly: Antiallodynic activity on Complete Freund's Adjuvant (CFA)-induced inflammatory pain model (von Frey). The format is in vivo, Sprague-Dawley rats. The conditions noted are these: Rattus norvegicus, ip, read-out: CFA model: effect (%) compared to control. On the procedure:
Male, Sprague-Dawley rats (200-220 g, Nara Bio, Korea) were habituated for 1 week before surgery and allowed free access to food and water throughout the experimentation. Room temperature and humidity were maintained at 24±2° C. and 50±10%, respectively.
CFA-induced inflammatory pain was induced by the procedure of Nagakura et al. (2003) and Gregory P. et al. (2010) with minor modifications. CFA (sigma, USA) was injected into the left plantar with a 100 ul volume under gaseous anesthesia with isoflurane and NO2 with a 4:4 flow ratio. Sham controls were injected with 100 ul of saline and preparation of the vehicle controls were identical to the group treated with compound, except for administration of vehicles without compound in the vehicle control group.
Tactile sensitivity (mechanical allodynia) was evaluated using von Frey monofilaments before and after treatment, and the animals were included in the study only if the withdrawal threshold value was less than 4 g. One week after surgery, CFA-infused animals (n=4˜6), sham-operated animals (n=12), and vehicle-operated animals (n=17) were tested for tactile sensitivity with von Frey monofilaments, with 3 trials for each animal. All animals were placed in a stainless steel mesh chamber and habituated for 30 min in the test cage. The tactile sensitivity for the ipsilateral hind paw was measured using the up-and-down method (Dixon, 1980) with seven von Frey monofilaments (0.4, 1, 2, 4, 6, 8, and 15 g) in 3 trials. The tactile sensitivity test was followed by Dixon's method (Dixon, 1980). The 50% paw withdrawal threshold for each paw was calculated using the following formula: [Xth] log=[vFr] log+ky where [vFr] is the force of the last von Frey used, k=0.2249 which is the average interval (in log units) between the von Frey monofilaments, and y is a value that depends upon the pattern of the withdrawal responses (Dixon, 1980).
The antiallodynic effect of the compound of Example was evaluated at the doses of 10, 30 and 60 mg/kg (n=4˜6), and were intraperitoneally administered in a volume of 5 ul/g by bodyweight in a vehicle of 30% (v/v) PEG. […]
The relative values compared to the sham (% control) were calculated and are shown in Table 4, which show an antiallodynic effect of the compound of examples in the CFA-induced pain model in rats.

Data set [2] has as its system Post operation-induced pain model. As to the kind of experiment: Antiallodynic activity on post operative pain-induced pain model (von Frey). The format is in vivo, Sprague-Dawley rats. The conditions noted are these: rat, intraperitoneal, 18.9 mg/kg administered, time not given. On the procedure: Male Sprague-Dawley rats (Orient Bio, Korea), 300-320 g, total of 201 rats were used (details in Table 7). Rats were habituated at least 3 days before surgery and free access to food and water (room temperature and humidity were maintained at […] and 50±10%, respectively). The process of performing the post-operation model's surgery was adapted from Brennan et al (1996). At first, rats with allodynia (threshold valueless than 8 g) were excluded in Pre-von Frey Test. During the post-operation surgery, rats were anesthetized under gaseous anesthesia with 2% isoflurane. Rats were laid face down on a plate fixed at 37° C. to prevent against hypothermia. The ipsilateral plantar aspect (left side) of the hind paw was prepared in a sterile manner with a 10% povidone-iodine solution. A longitudinal incision (1 cm) (FIG. 2-A) was made with a blade (number 11) through the skin and fascia of the ipsilateral plantar aspect of the foot, starting from 0.5 cm below the proximal edge of the heel and extending toward the toes. Rats' plantar muscles were elevated and incised longitudinally (FIG. 2-B). After hemostasis with gentle pressure, the skin was opposed with 2 mattress sutures (4-0 Dafilon) (FIG. 2-C). The wound site was covered with a 10% povidone-iodine solution gauze and injected with antibiotics (gentamicin, 8 mg/kg, ip). The sutures were removed under halothane anesthesia approximately 30 hours later, at the end of post-operative day 1.
After 2-3 days of recovery, rats with a good response (threshold less than 4 g) in Pre-von Frey Test were selected. According to this response, we made three groups with each group having equal average responses: Group 1, post-operation and drug treated; Group 2, post-operation and vehicle treated; Group 3, no post-operation and vehicle treated. In this study, Group 3 was the sham control (positive) group. The group 2 was used to check for possible failures to generate post-operative pain.
For efficacy measure, the threshold value of group C was assigned 100% efficacy, and the percentage of the threshold values of group A compared to group C (for each different dose level) were calculated as the efficacies. Base on these efficacy values, ED50 was calculated using log fitting. If there was no clear ED50, then we marked the percent efficacy at the highest tested dose or larger than highest tested dose.
For pain threshold test, all animals were placed in a stainless steel meshed chamber and habituated for 30 min in the test box. The tactile sensitivity of the ipsilateral hind paw was measured using the up-and-down method (Dixon, 1980) with seven von Frey monofilaments (0.4, 1, 2, 4, 6, 8, and 15 g) using 3 trials. The 50% paw withdrawal threshold for each paw was calculated using the following formula: [Xth] log=[vFr] log+ky, where [vFr] is the force of the last von Frey filament used, k=0.2249 which is the average interval (in log units) between the von Frey monofilaments, y which is a value that depends upon the pattern of withdrawal responses, and Xth which is the threshold value (Dixon, 1980).
Drugs were dissolved 30% PEG400 for example 60, 0.9% saline for Pregabalin, 20% Tween80 for Tylenol, 0.9% saline for Topiramate. These vehicles were selected depending on the compound's solubility. Intraperitoneal injection (5 μl/g) was done for all drugs.
The relative values compared to the sham (% control) were calculated and shown in Table 8, which show an antiallodynic effect of the compound of examples on Post operation-induced pain model in rats.

[3] abbreviates: Rattus norvegicus, po, read-out: SNL model: effect (%) compared to control, rat, oral, 3.5 mg/kg administered, time not given.

Molecules are shown by their SMILES. Like-named read-outs stand apart in the source and are kept apart here.

The term melting point denotes the temperature, or range, at which the solid turns liquid. For orientation: ED50 means the dose that gives a 50% effect, or the effect in half of the subjects.

In turn, `CC1(C)Oc2ccccc2C(COS([NH-])(=O)=O)O1.[Na+]` (centres unmarked) (hydrate or solvate) [Example 60, Sodium (((2,2-dimethyl-4H-benzo[d][1,3]dioxin-4-yl)methoxy)sulfonyl)amide Trihydrate] yielded a melting point of 81 to 86 °C.
As to `CC1(C)Oc2ccccc2C(COS(N)(=O)=O)O1` (racemic) [Example 3, (2,2-dimethyl-4H-benzo[d][1,3]dioxin-4-yl))methyl sulfamate], in the data set with SNL model (rat, oral, 3.5 mg/kg administered, 0.5 h, read-out: SNL model: effect (%) compared to control), the response vs control in vivo at 3.5 mg/kg was determined as 35%. Besides, the “Writh test: effect (%) compared to control” value in data set [1] (80 mg/kg administered, 0.5 h) is listed as “(63.9%, 0.5 h)”.
Consider `CC1(C)Oc2ccccc2[C@H](COS(N)(=O)=O)O1` [Example 1, ((R)-2,2-dimethyl-4H-benzo[d][1,3]dioxin-4-yl)methyl sulfamate], for which the median effective dose (ED50) in the data set with SNL model (rat, oral, 1 h, read-out: SNL model: ED50) was 9.9 mg/kg; in data set [1] (0.25 h, read-out: Writh test: ED50), 56.8 mg/kg.
With `CC1(C)Oc2ccc(Cl)cc2[C@@H](COS([NH-])(=O)=O)O1.[Na+]` [Example 62, Sodium (S)-(((6-chloro-2,2-dimethyl-4H-benzo[d][1,3]dioxin-4-yl)methoxy)sulfonyl)amide], the melting point is 133.8 to 135.3 °C. For the same compound, the response vs control in vivo at 3.5 mg/kg with SNL model (setting [3]) was found to be 32.6%.
In turn, `CC1(C)Oc2ccc(Cl)cc2C(COS([NH-])(=O)=O)O1.[Na+]` (centres unmarked) [Example 63, Sodium (((6-chloro-2,2-dimethyl-4H-benzo[d][1,3]dioxin-4-yl)methoxy)sulfonyl)amide] came in with a melting point of 129.3 to 132.3 °C. Also, the response vs control in vivo at 3.5 mg/kg in the data set on SNL model (setting [3]) stood at 32.9%. For the same compound, the response vs control in vivo at 25 mg/kg in the data set with CFA-induced pain model was determined as 16.9%. Further, the “Post Operation: effect (%) compared to control” value in data set [2] was “(26.6%)”.
Turning to `[NH-]S(=O)(=O)OC[C@@H]1OC2(CCCC2)Oc2ccccc21.[Na+]` [Example 64, Sodium (R)-(((4H-spiro[benzo[d][1,3]dioxine-2,1′-cyclopentan]-4-yl)methoxy)sulfonyl)amide], the melting point was in the range of 132.9 to 134.9 °C. The response vs control in vivo at 3.5 mg/kg with SNL model (setting [3]) came to 22.5%.
Compound `[NH-]S(=O)(=O)OCC1OC2(CCCC2)Oc2ccccc21.[Na+]` (centres unmarked) [Example 66, Sodium (((4H-spiro[benzo[d][1,3]dioxine-2,1′-cylcopentan]-4-yl)methoxy)sulfonyl)amide] gave a melting point of 145.5 to 148.9 °C. For the same compound, the response vs control in vivo at 3.5 mg/kg in the data set on SNL model (Rattus norvegicus, po, 0.5 h, read-out: SNL model: effect (%) compared to control, rat, oral, 3.5 mg/kg administered, 0.5 h) was found to be 59.5%.
`[NH-]S(=O)(=O)OCC1OC2(CCCC2)Oc2ccc(Cl)cc21.[Na+]` (centres unmarked) [Example 67, Sodium ((6-chloro-(4H-spiro[benzo[d][1,3]dioxine-2,1′-cyclopentan]-4-yl)methoxy)sulfonyl)amide] showed a melting point of 68.6 to 72.3 °C. Further, the response vs control in vivo at 3.5 mg/kg in the data set on SNL model (setting [3]) turned out to be 49.1%.
